Assay results reported in patent US12509421B2, “Preparation and application of deuterated 4-phenyl-4-piperidinols” (priority 2022, dated 2025).
Counter-ions that a name gives are not always drawn.

Experiments:
[1] = Metabolic stability in liver microsomes, dog; details: for half-life at 2 μM / microsomal CLint at 2 μM: dog, microsomes, pH 7.4
Method: (§1) The solution B is slowly dropped into solution A, and the pH is adjusted to 7.40±0.05.
(§2) • Control drug: 4 μL Verapamil solution (10 mM) is added with 96 μL DMSO and diluted to 400 μM; • Compound to be tested: 4 μL compound to be tested (10 mM) is added with 96 μL normal saline and diluted to 400 μM.
(§3) The microsomes are stored in the refrigerator at −80° C., thawed at room temperature after being taken out, and mixed gently.
(§4) […] PBS (100 mm, pH=7.4) solution is added to the negative sample. The solution is put into water bath at 37° C. and pre-incubated for 10 minutes; • B) After incubation, 2 μL reference drug or compound to be tested (400 μM) are added into each well to start the reaction.

δOR = biological target: T1, δOR (Homo sapiens, UniProt P41143); assay: Opioid receptor competitive binding test, δOR; details: compound at 10 μM; [3H]-labeled ligand; CHO cell membranes; ± SD of three measurements
T1 construct: expressed in transfected cells; host or cells: CHO cells
Method: (§5) CHO cells expressing p opioid receptor, δ opioid receptor and K opioid receptor are cultured in a 10 cm^2 Petri dish (F-12 medium+10% newborn bovine serum) for several days, and the culture solution is sucked after the cells grew to the bottom of the dish. 3 ml PBS/EDTA solution (0.1M NaCl, 0.01M NaH2PO4, 0.04% EDTA) is added for digestion for 3-5 minutes. The cells are blown with a straw to get fall off completely, collected in a 40 ml centrifuge tube, centrifuged at 5000 rpm for 5 minutes, and removed with the supernatant. The centrifuge tube is added with ice-cold homogenate (50 mM HEPES PH 7.4, 3 mM MgCl2, 1 mM EGTA). The solution and precipitate are transferred to homogenizer for homogenization; Then the homogenate is transferred into a centrifuge tube, centrifuged at 18000 rpm for 15 minutes, and centrifuged twice; the obtained precipitate is added with an appropriate amount of buffer solution of 50 mM Tris-HCl and pH 7.4, homogenized and sub-packaged in centrifuge tubes. The product is stored in a refrigerator at −70° C. for later use.
(§6) 20-30 μg expressed membrane receptor protein and [3H]-labeled ligand (1-2 nM) are added to the total binding tube, added with 1 μM of corresponding ligand to the corresponding nonspecific binding tube. Various screened opioid ligand drugs (see the drug compounds in Table 1 below) are added to the sample tube with 100 μL final volume. The sample is incubated at 30° C. for 30 minutes, and the reaction is terminated in ice water. The glass fiber filter paper gF/C (whatman) is used for negative pressure filtration on Millipore sample collector. The sample is eluted with 4 ml 50 mm tris-HCl (pH 7.4) for three times, dried with the filter paper, put in 0.5 ml Eppendorf tube and added with 0.5 ml lipophilic scintillation liquid. The radioactive intensity is measured with PERKIN ELMER PRI-CARB 2910 liquid scintillation counter with calculation of the inhibition rate. The experiment is repeated for more than three times, with three compound tubes in each group. Inhibition rate(or binding rate)=(total binding rate dpm−sample tube dpm)/(total binding tube dpm-nonspecific binding tube dpm)×100%
(§7) IC50 is calculated with Prism 5.0 software. The Ki value is calculated according to the following formula: Ki=IC50/(1^+[L]/Kd), wherein [L] is the concentration of the added labeled ligand, and Kd is the equilibrium dissociation parameter of the labeled ligand.

[2] = Metabolic stability in liver microsomes, human; details: for half-life at 2 μM / microsomal CLint at 2 μM: human, microsomes, pH 7.4
Method: as §1, §2, §3, §4

Female Kunming mice = assay: Hot plate analgesia test in mice; assay type: in vivo; details: intraperitoneal, 55° C. hot plate; for ED50: Mus musculus, ip
Method: Female Kunming mice weighing about 20 g are placed on a hot plate instrument preheated to 55° C., and the latency of licking hind feet or lifting hind feet is used as the pain threshold index. Animals are screened before the experiment, and animals with latency less than 5 s or more than 30 s are excluded. To prevent foot burns, the longest observation time is set to 60s. The basic pain threshold is the average of two measurements, and the interval between the two measurements is 5 minutes. The pain threshold of mice in each group is determined at 15 minutes, 30 minutes, 60 minutes and 120 minutes after intraperitoneal administration. The effective percentage of analgesia (% MPE) is calculated according to the following formula
[formula] According to the effective percentage of analgesia, the ED50 value is calculated by graphpad prism 5.0 software.

κOR = biological target: T2, κOR (Homo sapiens, UniProt P41145); assay: Opioid receptor competitive binding test, κOR; details: compound at 10 μM; [3H]-labeled ligand; CHO cell membranes; ± SD of three measurements
T2 construct: expressed in transfected cells; host or cells: CHO cells
Method: as §5, §6, §7

[3] = Metabolic stability in liver microsomes, rat; details: for half-life at 2 μM / microsomal CLint at 2 μM: rat, microsomes, pH 7.4
Method: as §1, §2, §3, §4

μOR = biological target: T3, μOR (Homo sapiens, UniProt P35372); assay: Opioid receptor competitive binding test, μOR; details: compound at 10 μM; [3H]-labeled ligand; CHO cell membranes; ± SD of three measurements
T3 construct: expressed in transfected cells; host or cells: CHO cells
Method: as §5, §6, §7

CYP 2C19 = CYP 2C19 (Homo sapiens, UniProt P33261); assay: Inhibition of cytochrome P450 enzyme in human liver microsomes, CYP 2C19
CYP 3A4 = CYP 3A4 (Homo sapiens, UniProt P08684); assay: biochemical; details: CYP 3A4 IC50, human liver microsomes
[4] = Dog liver microsomes 0.5 mg/mL, NADPH 1 mM, compound 2 μM
[5] = Human liver microsomes 0.5 mg/mL, NADPH 1 mM, compound 2 μM
[6] = Rat liver microsomes 0.5 mg/mL, NADPH 1 mM, compound 2 μM

Structure (SMILES) | CLint [1, 4] | t1/2 [1, 4] | δOR binding rate (δOR) | CLint [2, 5] | t1/2 [2, 5] | ED50, hot plate (Female Kunming mice) | κOR binding rate (κOR) | CLint [3, 6] | t1/2 [3, 6] | μOR binding rate (μOR) | IC50 (CYP 2C19) | half-life at 2 μM [1] | microsomal CLint at 2 μM [1] | half-life at 2 μM [2] | microsomal CLint at 2 μM [2] | ED50 (Female Kunming mice) | IC50 (CYP 3A4; substrate midazolam) | IC50 (CYP 3A4; substrate testosterone) | half-life at 2 μM [3] | microsomal CLint at 2 μM [3]
COc1cccc([C@]2(O)CCN(S(=O)(=O)Cc3ccccc3)C[C@H]2CN(C)C)c1.Cl [Example 20 of CN201911076305.X, reference compound] | 839.02 μL/min/mg protein | 1.65 min | 10.5 ± 3.7% | 950.42 μL/min/mg protein | 1.46 min | 0.49 mg/kg | 15.25 ± 1.56% | 747.68 μL/min/mg protein | 1.85 min | 27.52 ± 1.54% | – | – | – | – | – | – | – | – | – | –
[2H]C([2H])([2H])N(C)C[C@@H]1CN(S(=O)(=O)Cc2ccccc2)CC[C@@]1(O)c1cccc(OC)c1 [II-1hydrochloride] | – | – | 11.6 ± 2.1% | – | – | – | 16.37 ± 1.6% | – | – | 27.9 ± 1.3% | > 50 µM | 5.01 min | 605 µL/min/mg | 5.22 min | 663 µL/min/mg | 0.52 mg/kg | 42.9 µM | 41.9 µM | 5.63 min | 701 µL/min/mg
[2H]C([2H])([2H])N(C[C@@H]1CN(S(=O)(=O)Cc2ccccc2)CC[C@@]1(O)c1cccc(OC)c1)C([2H])([2H])[2H] [II-3hydrochloride] | – | – | 12.3 ± 2.0% | – | – | – | 15.3 ± 2.0% | – | – | 28.2 ± 1.5% | > 50 µM | 5.26 min | 663 µL/min/mg | 5.46 min | 685 µL/min/mg | 0.5 mg/kg | 46.8 µM | 43.6 µM | 5.72 min | 697 µL/min/mg
[2H]C([2H])([2H])Oc1cccc([C@]2(O)CCN(S(=O)(=O)Cc3ccccc3)C[C@H]2CN(C([2H])([2H])[2H])C([2H])([2H])[2H])c1 [II-5hydrochloride] | – | – | 12.9 ± 1.8% | – | – | – | 15.8 ± 4.6% | – | – | 27.1 ± 1.2% | > 50 µM | 6.03 min | 720 µL/min/mg | 6.25 min | 704 µL/min/mg | 0.58 mg/kg | > 50 µM | > 50 µM | 6.59 min | 763 µL/min/mg
[2H]C([2H])([2H])N(C)C[C@@H]1CN(C(=O)Cc2cc(F)c(F)cc2F)CC[C@@]1(O)c1cccc(OC)c1 [II-7hydrochloride, 1-((3R,4S)-4-hydroxy-4-(3-methoxyphenyl)-3-(((methyl-d3)amino)methyl)-1-piperidinyl)-2(2,4,5-trifluorophenyl)ethyl-1-one] | – | – | 10.6 ± 2.0% | – | – | – | 16.6 ± 2.9% | – | – | 26.1 ± 2.3% | > 50 µM | 5.25 min | 669 µL/min/mg | 5.42 min | 681 µL/min/mg | 0.51 mg/kg | 49.7 µM | 47.5 µM | 5.68 min | 689 µL/min/mg
[2H]C([2H])([2H])N(C[C@@H]1CN(C(=O)Cc2cc(F)c(F)cc2F)CC[C@@]1(O)c1cccc(OC)c1)C([2H])([2H])[2H] [II-9hydrochloride] | – | – | 12.8 ± 0.8% | – | – | – | 17.2 ± 3.5% | – | – | 27.1 ± 1.1% | > 50 µM | 5.19 min | 659 µL/min/mg | 5.32 min | 673 µL/min/mg | 0.52 mg/kg | 48 µM | 47 µM | 5.55 min | 681 µL/min/mg
[2H]C([2H])([2H])Oc1cccc([C@]2(O)CCN(C(=O)Cc3cc(F)c(F)cc3F)C[C@H]2CN(C([2H])([2H])[2H])C([2H])([2H])[2H])c1 [II-11hydrochloride] | – | – | 10.4 ± 1.1% | – | – | – | 16.4 ± 2.3% | – | – | 24.3 ± 1.9% | > 50 µM | 5.99 min | 703 µL/min/mg | 6.18 min | 711 µL/min/mg | 0.64 mg/kg | > 50 µM | > 50 µM | 6.46 min | 747 µL/min/mg
